In patent US10414811B2, “Protease-resistant lipidated GLP-1 analogs” (MEDIMMUNE LIMITED, priority 2015, dated 2019):
Like-named read-outs stand apart in the source and are kept apart here. Numbered stars: 1 amine (or outer) side, 2 acyl side, 3 side chain; on linkers, the order of the positions; unused ones are H or OH. Square brackets hold non-standard residues; d marks the D form. Side chains are listed from the residue outwards. Peptide text beside a SMILES is read from it. * marks the point of attachment. C18 diacid = O=C(O)CCCCCCCCCCCCCCCCC(=O)*; γGlu = O=C(O)[C@H](CCC(=O)[*:2])N[*:1]; Palmitoyl = CCCCCCCCCCCCCCCC(=O)*; αMeF = C[C@](N)(Cc1ccccc1)C(=O)O; αMeK = C[C@](N)(CCCCN)C(=O)O; αMeS = C[C@](N)(CO)C(=O)O; AEEA = NCCOCCOCC(=O)O; Aib = CC(C)(N)C(=O)O

How the values were obtained:
Assay type in all cases: cell-based
[1] = target: T1, human GLP-1 receptor (GLP-1R) (Homo sapiens, UniProt P43220); assay: cAMP assay, human GLP-1R cells
T1 construct: expressed in transfected cells
T1 sequence (P43220 24-463): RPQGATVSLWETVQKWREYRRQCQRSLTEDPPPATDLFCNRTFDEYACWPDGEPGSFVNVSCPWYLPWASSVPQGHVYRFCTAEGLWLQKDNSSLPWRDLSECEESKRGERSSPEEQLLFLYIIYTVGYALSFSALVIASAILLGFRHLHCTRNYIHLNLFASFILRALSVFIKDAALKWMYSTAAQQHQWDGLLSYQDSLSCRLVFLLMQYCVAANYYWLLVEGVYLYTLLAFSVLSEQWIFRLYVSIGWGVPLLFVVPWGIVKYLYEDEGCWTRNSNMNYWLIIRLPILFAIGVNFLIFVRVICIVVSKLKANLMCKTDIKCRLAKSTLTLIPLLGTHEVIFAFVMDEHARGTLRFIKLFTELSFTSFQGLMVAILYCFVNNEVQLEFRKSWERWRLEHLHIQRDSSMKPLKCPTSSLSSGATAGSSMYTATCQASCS
Procedure, shortened: (§1)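 Peptide-stimulated cAMP measured by two-step HTRF after a 30 min room-temperature incubation with receptor-expressing cells (hGLP-1R, hGIPR at 1×10^5 cells/ml; hGCGR at 2×10^5 cells/ml). Duplicate dilutions; EC50 from 4-parameter logistic fit of % Delta F.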

[2] = target: T2, human glucagon receptor (GCGR) (Homo sapiens, UniProt P47871); assay: cAMP assay, human GCGR cells; settings: cAMP assay
T2 construct: expressed in transfected cells
T2 sequence (P47871 26-477): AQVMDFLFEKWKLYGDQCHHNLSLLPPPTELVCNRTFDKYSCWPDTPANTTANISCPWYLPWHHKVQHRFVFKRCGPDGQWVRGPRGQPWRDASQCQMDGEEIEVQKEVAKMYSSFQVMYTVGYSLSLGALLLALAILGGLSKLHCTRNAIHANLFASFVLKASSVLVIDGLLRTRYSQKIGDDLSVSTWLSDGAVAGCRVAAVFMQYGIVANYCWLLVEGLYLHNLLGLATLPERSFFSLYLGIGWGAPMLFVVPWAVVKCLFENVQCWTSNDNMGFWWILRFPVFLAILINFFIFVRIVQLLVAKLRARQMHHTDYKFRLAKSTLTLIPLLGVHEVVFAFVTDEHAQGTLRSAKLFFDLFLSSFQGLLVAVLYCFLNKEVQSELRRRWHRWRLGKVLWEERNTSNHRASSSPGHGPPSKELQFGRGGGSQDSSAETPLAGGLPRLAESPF
Procedure, shortened: as §1

[3] = target: T3, human glucose-dependent insulinotropic peptide receptor (GIPR) (Homo sapiens, UniProt P48546); assay: cAMP assay, human GIPR cells; settings: cAMP assay
T3 construct: expressed in transfected cells
T3 sequence (P48546 22-466): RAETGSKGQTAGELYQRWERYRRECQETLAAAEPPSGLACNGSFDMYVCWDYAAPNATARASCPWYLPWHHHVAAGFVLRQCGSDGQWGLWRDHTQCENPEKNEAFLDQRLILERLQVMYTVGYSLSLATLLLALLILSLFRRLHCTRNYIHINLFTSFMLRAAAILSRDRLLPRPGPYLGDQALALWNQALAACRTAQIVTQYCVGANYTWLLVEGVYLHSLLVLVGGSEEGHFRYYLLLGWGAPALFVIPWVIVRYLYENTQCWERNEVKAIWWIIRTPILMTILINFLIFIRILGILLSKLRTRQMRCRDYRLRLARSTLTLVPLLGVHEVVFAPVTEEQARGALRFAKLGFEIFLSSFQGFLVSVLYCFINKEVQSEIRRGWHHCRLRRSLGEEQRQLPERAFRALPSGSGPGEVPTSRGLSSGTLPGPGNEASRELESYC
Procedure, shortened: as §1

GLP-1R (INS1e assay) = target: T4, GLP-1R (INS1e assay) (Rattus norvegicus, UniProt P32301); assay: INS1e assay, cAMP activity at GLP-1R; settings: mono-lipidated peptides
T4 construct: endogenous in cells; host or cells: INS-1E cells
T4 sequence (P32301 22-463): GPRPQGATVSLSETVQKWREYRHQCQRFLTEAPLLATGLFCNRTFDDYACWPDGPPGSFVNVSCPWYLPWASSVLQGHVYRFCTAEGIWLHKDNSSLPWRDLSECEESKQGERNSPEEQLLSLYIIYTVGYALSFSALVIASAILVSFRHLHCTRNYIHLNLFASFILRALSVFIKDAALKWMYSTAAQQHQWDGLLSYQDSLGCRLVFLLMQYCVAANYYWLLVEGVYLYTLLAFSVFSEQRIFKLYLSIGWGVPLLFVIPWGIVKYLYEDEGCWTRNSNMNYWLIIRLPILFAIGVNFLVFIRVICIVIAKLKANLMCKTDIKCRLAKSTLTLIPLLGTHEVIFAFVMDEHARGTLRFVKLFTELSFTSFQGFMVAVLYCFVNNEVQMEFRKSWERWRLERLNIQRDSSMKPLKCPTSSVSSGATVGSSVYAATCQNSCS
Procedure, shortened: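 It pairs cAMP-d2 acceptor with anti-cAMP cryptate donor, both prepared 1/20 in conjugate/lysis buffer, applied as a two-step protocol.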

[4] = cAMP assay, first determination (n1), read-out: Primary assay EC50 GLP-1R n1
[5] = cAMP assay, second determination (n2), read-out: Primary assay EC50 GLP-1R n2
[6] = mean of n1 and n2, read-out: Mean pM GLP-1R
[7] = first determination (n1), read-out: Primary assay EC50 Gluc-R (n1)
[8] = first determination (n1), read-out: Primary assay EC50 GIP-R (n1)
[9] = mean of n1 and n2, read-out: INS1e assay EC50 Mean pM GLP-1R
[10] = replicate n1, read-out: INS1e assay EC50 GLP-1R n1
[11] = replicate n2, read-out: INS1e assay EC50 GLP-1R n2
[12] = second determination (n2), read-out: Primary assay EC50 Gluc-R (n2)
[13] = second determination (n2), read-out: Primary assay EC50 GIP-R (n2)

Compound	EC50 [1, 4] [pM]	EC50 [1, 5] [pM]	EC50 [1, 6] [pM]	EC50 [2, 7] [nM]	EC50 [3, 8] [nM]	EC50 (GLP-1R (INS1e assay); [9]) [pM]	EC50 (GLP-1R (INS1e assay); [10]) [pM]	EC50 (GLP-1R (INS1e assay); [11]) [pM]	EC50 ([2]; Primary assay EC50 Gluc-R (n1), first determination (n1)) [nM]	EC50 ([2]; read-out: Primary assay EC50 Gluc-R (n2), second determination (n2)) [nM]	EC50 ([3]; Primary assay EC50 GIP-R (n1), first determination (n1)) [nM]	EC50 ([3]; read-out: Primary assay EC50 GIP-R (n2), second determination (n2)) [nM]	EC50 [2, 12] [nM]	EC50 [3, 13] [nM]
CC[C@H](C)[C@H](NC(=O)[C@](C)(Cc1ccccc1)NC(=O)[C@H](CCC(=O)O)NC(=O)[C@H](CCCCNC(=O)COCCOCCNC(=O)COCCOCCNC(=O)CC[C@H](NC(=O)CCCCCCCCCCCCCCCCC(=O)O)C(=O)O)NC(=O)[C@H](C)NC(=O)[C@H](C)NC(=O)[C@H](CCC(=O)O)NC(=O)CNC(=O)[C@H](CCC(=O)O)NC(=O)[C@H](CC(C)C)NC(=O)[C@](C)(Cc1ccccc1)NC(=O)[C@H](CO)NC(=O)[C@](C)(CO)NC(=O)[C@@H](NC(=O)[C@H](CC(=O)O)NC(=O)[C@H](CO)NC(=O)[C@@H](NC(=O)[C@](C)(Cc1ccccc1)NC(=O)[C@H](CO)NC(=O)CNC(=O)[C@H](CCC(=O)O)NC(=O)C(C)(C)NC(=O)[C@@H](N)Cc1c[nH]cn1)[C@@H](C)O)C(C)C)C(=O)N[C@@H](C)C(=O)N[C@@](C)(Cc1ccccc1)C(=O)N[C@H](C(=O)N[C@H](C(=O)N[C@@H](CCCCN)C(=O)NCC(=O)NCC(N)=O)C(C)C)C(C)C [compound 50]	170	260	216	≥ 26	≥ 26	32400	22100	42600						
CC[C@H](C)[C@H](NC(=O)[C@](C)(Cc1ccccc1)NC(=O)[C@H](CCC(=O)O)NC(=O)[C@H](CCCCNC(=O)CC[C@H](NC(=O)CCCCCCCCCCCOc1ccc(C(=O)O)cc1)C(=O)O)NC(=O)[C@H](C)NC(=O)[C@H](C)NC(=O)[C@H](CCC(=O)O)NC(=O)CNC(=O)[C@H](CCC(=O)O)NC(=O)[C@H](CC(C)C)NC(=O)[C@](C)(Cc1ccccc1)NC(=O)[C@H](CO)NC(=O)[C@](C)(CO)NC(=O)[C@@H](NC(=O)[C@H](CC(=O)O)NC(=O)[C@H](CO)NC(=O)[C@@H](NC(=O)[C@](C)(Cc1ccccc1)NC(=O)[C@H](CO)NC(=O)CNC(=O)[C@H](CCC(=O)O)NC(=O)C(C)(C)NC(=O)[C@@H](N)Cc1c[nH]cn1)[C@@H](C)O)C(C)C)C(=O)N[C@@H](C)C(=O)N[C@@](C)(Cc1ccccc1)C(=O)N[C@H](C(=O)N[C@H](C(=O)N[C@@](C)(CCCCN)C(=O)NCC(=O)NCC(N)=O)C(C)C)C(C)C [compound 137]	6.6	3.8	5.2			50	63.7	36.2	≥ 27	≥ 27	≥ 27	≥ 27		
CC[C@H](C)[C@H](NC(=O)[C@H](Cc1ccccc1)NC(=O)[C@H](CCC(=O)O)NC(=O)[C@H](CCCCN)NC(=O)[C@H](C)NC(=O)[C@H](C)NC(=O)[C@H](CCC(=O)O)NC(=O)CNC(=O)[C@H](CCC(=O)O)NC(=O)[C@H](CC(C)C)NC(=O)[C@](C)(Cc1ccccc1)NC(=O)[C@H](CO)NC(=O)[C@](C)(CO)NC(=O)[C@@H](NC(=O)[C@H](CC(=O)O)NC(=O)[C@H](CO)NC(=O)[C@@H](NC(=O)[C@](C)(Cc1ccccc1)NC(=O)[C@H](CO)NC(=O)CNC(=O)[C@H](CCC(=O)O)NC(=O)C(C)(C)NC(=O)[C@@H](N)Cc1c[nH]cn1)[C@@H](C)O)C(C)C)C(=O)N[C@@H](CCCCNC(=O)COCCOCCNC(=O)COCCOCCNC(=O)CC[C@H](NC(=O)CCCCCCCCCCCCCCCCC(=O)O)C(=O)O)C(=O)N[C@@H](Cc1c[nH]c2ccccc12)C(=O)N[C@H](C(=O)N[C@H](C(=O)N[C@@H](CCC(=O)O)C(=O)NCC(=O)NCC(N)=O)C(C)C)C(C)C [compound 65] (H-H[Aib]EGS[αMeF]TSDV[αMeS]S[αMeF]LEGEAAKEFIK([AEEA-AEEA-γGlu-C18 diacid])WVVEGG-NH2)	19.7	14	16.9	≥ 25.1	≥ 25.1	3160	2570	3740					≥ 25.1	≥ 25.1
CC[C@H](C)[C@H](NC(=O)[C@](C)(Cc1ccccc1)NC(=O)[C@H](CCCCNC(=O)COCCOCCNC(=O)COCCOCCNC(=O)CC[C@H](NC(=O)CCCCCCCCCCCCCCCCC(=O)O)C(=O)O)NC(=O)[C@](C)(CCCCN)NC(=O)[C@H](C)NC(=O)[C@H](C)NC(=O)[C@H](CCC(=O)O)NC(=O)CNC(=O)[C@H](CCC(=O)O)NC(=O)[C@H](CC(C)C)NC(=O)[C@](C)(Cc1ccccc1)NC(=O)[C@H](CO)NC(=O)[C@](C)(CO)NC(=O)[C@@H](NC(=O)[C@H](CC(=O)O)NC(=O)[C@H](CO)NC(=O)[C@@H](NC(=O)[C@](C)(Cc1ccccc1)NC(=O)[C@H](CO)NC(=O)CNC(=O)[C@H](CCC(=O)O)NC(=O)C(C)(C)NC(=O)[C@@H](N)Cc1c[nH]cn1)[C@@H](C)O)C(C)C)C(=O)N[C@@H](C)C(=O)N[C@@](C)(Cc1ccccc1)C(=O)N[C@H](C(=O)N[C@H](C(=O)N[C@@](C)(CCCCN)C(=O)NCC(=O)NCC(N)=O)C(C)C)C(C)C [compound 108] (H-H[Aib]EGS[αMeF]TSDV[αMeS]S[αMeF]LEGEAA[αMeK]K([AEEA-AEEA-γGlu-C18 diacid])[αMeF]IA[αMeF]VV[αMeK]GG-NH2; N-terminus assumed)	3.8	3.46	4	≥ 25	≥ 25	248	38	458					≥ 25.4	≥ 25.4
CCCCCCCCCCCCCCCC(=O)N[C@@H](CCC(=O)NCCCC[C@H](NC(=O)[C@](C)(CCCCN)NC(=O)[C@@H](NC(=O)[C@@H](NC(=O)[C@](C)(Cc1ccccc1)NC(=O)[C@H](C)NC(=O)[C@@H](NC(=O)[C@](C)(Cc1ccccc1)NC(=O)[C@H](CCC(=O)O)NC(=O)[C@](C)(CCCCN)NC(=O)[C@H](C)NC(=O)[C@H](C)NC(=O)[C@H](CCC(=O)O)NC(=O)CNC(=O)[C@H](CCC(=O)O)NC(=O)[C@H](CC(C)C)NC(=O)[C@](C)(Cc1ccccc1)NC(=O)[C@H](CO)NC(=O)[C@](C)(CO)NC(=O)[C@@H](NC(=O)[C@H](CC(=O)O)NC(=O)[C@H](CO)NC(=O)[C@@H](NC(=O)[C@](C)(Cc1ccccc1)NC(=O)[C@H](CO)NC(=O)CNC(=O)[C@H](CCC(=O)O)NC(=O)C(C)(C)NC(=O)[C@@H](N)Cc1c[nH]cn1)[C@@H](C)O)C(C)C)[C@@H](C)CC)C(C)C)C(C)C)C(=O)NCC(N)=O)C(=O)O [compound 71] (H-H[Aib]EGS[αMeF]TSDV[αMeS]S[αMeF]LEGEAA[αMeK]E[αMeF]IA[αMeF]VV[αMeK]K([γGlu-Palmitoyl])G-NH2)	6.2	8	7.1	≥ 27	≥ 27	723	604	841					≥ 27	≥ 27
